# Experimental data from patent US11696928B2, “Compounds and use thereof in the expansion of stem cells and/or progenitor cells” (UNIVERSITE DE MONTREAL, priority 2017, dated 2023).
# What was measured:
# [1] = test system: Human CD34+ cord blood (CB) cells; assay: CD34+ activity assessment (7-day expansion of pre-expanded CD34+ cells, flow cytometry); format: cell-based; settings: concentration at which compound/vehicle ratio of CD34+ cell number is >= 1.5; 7 days, with 35 nM UM0128171; Table 1
# Method: Human CD34+ cord blood (CB) cells were isolated from fresh units using RosetteSep™ 0034 pre-enrichment cocktail followed by CD34 positive selection using EasySep Kit™ (StemCell Technologies). The cells were then pre-expanded in bulk, by culturing at 37° C. for 6 days in HSC expansion media consisting of StemSpan ACF (StemCell Technologies) supplemented with 100 ng/mL Stem Cell Factor (SCF, Shenandoah), 100 ng/mL FMS-like Tyrosine Kinase 3 Ligand (FLT3L, Shenandoah), 50 ng/mL Thrombopoietin (TPO, Shenandoah), 2 mM GlutaMAX™ (Invitrogen), 10 μg/mL low density lipoproteins (LDL, StemCell Technologies), 10 μg/mL Ciprofloxacin and 35 nM UM0128171. […] Following the pre-expansion, cells were harvested, aliquoted and frozen until use.
# For each activity assessment, CD34+ pre-expanded cells (approximately 2000 per well in a 384-well plate) were cultured in HSC expansion media, in the presence of 35 nM UM0128171. Compounds were serially diluted (1/2) in DMSO (10 dilutions per compound) and added to the cells in order to achieve a 1/1000 final dilution. StemRegenin1 (SR1) and/or Compound 1001 were included in all experiments as controls to monitor assay performance. The plate was incubated at 37° C. for 7 days in static conditions (i.e. no shaking and no addition of media). Flow cytometry analysis was performed at the end of the 7-day expansion. Cells were stained with PE-labeled anti-human CD45RA (BD Biosciences) and APC-labeled anti-human CD34 (BD Biosciences) and analyzed using Intellicyt IQue cytometer equipped with ForeCyt software. Gates were drawn around the populations of interest to obtain cell numbers and relative proportions. The EC1.5 value, which is the concentration at which the compound/vehicle ratio is greater or equal to 1.5, was calculated by plotting the CD34+ cell number against concentrations (log-scale) in a 4-PL curve and fitting the curve using IDBS XLfit (set model 251) in Microsoft Excel.
# [2] = molecular target: T1, AhR (Homo sapiens, UniProt P35869); assay: Inhibition of AhR-mediated gene transcription (HEK-XRE 11.1 luciferase reporter, MeBIO induction); format: cell-based; settings: HEK-XRE 11.1 cells, MeBIO 0.1 nM, luminescence after 24 hours; Table 1
# T1 construct: One of the resultant clones was named HEK-XRE 11.1, and used in the reporter gene assays; endogenous in cells; host or cells: HEK-XRE 11.1 (HEK cells stably carrying the AhR-responsive luciferase reporter X4-4.27 and phRL-CMV)
# T1 sequence (P35869 11-848): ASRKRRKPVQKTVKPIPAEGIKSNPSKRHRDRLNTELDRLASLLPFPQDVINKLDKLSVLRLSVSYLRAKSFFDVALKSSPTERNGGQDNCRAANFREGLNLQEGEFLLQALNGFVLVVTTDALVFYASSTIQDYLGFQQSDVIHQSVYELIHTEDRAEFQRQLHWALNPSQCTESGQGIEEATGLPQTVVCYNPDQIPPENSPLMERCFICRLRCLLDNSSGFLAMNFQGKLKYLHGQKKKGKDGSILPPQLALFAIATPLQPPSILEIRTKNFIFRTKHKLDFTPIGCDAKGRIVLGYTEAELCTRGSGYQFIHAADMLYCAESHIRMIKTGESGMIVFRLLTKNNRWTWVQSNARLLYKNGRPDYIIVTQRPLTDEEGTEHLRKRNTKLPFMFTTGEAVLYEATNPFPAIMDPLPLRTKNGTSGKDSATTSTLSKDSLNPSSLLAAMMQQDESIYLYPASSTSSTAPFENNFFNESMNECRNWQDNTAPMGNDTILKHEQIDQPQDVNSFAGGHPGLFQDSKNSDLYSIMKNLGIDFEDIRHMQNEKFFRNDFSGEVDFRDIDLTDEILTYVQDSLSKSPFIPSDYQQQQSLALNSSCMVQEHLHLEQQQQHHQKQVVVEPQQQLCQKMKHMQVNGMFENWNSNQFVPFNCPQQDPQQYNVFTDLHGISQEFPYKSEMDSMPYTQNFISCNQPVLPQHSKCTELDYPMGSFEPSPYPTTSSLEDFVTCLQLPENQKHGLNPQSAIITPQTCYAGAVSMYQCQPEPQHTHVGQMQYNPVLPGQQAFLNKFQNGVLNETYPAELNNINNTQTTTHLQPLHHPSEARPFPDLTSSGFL
# Method: HEK cells line was transfected with an AhR-responsive firefly luciferase reporter gene X4-4.27 and the stable transfectants generated were again transfected with phRL-CMV (a Renilla luciferase expression vector; Promega) along with pBAsi-hU6 Pur DNA (a plasmid carrying the puromycin-resistant gene; TaKaRa, Shiga, Japan), and maintained in the presence of both hygromycin B and puromycin (2 mg/mL). One of the resultant clones was named HEK-XRE 11.1, and used in the reporter gene assays.
# HEK-XRE 11.1 cells were plated in 384-well plates at a density of 25,000 cells in 50 uL volume per well. The induction of ARh pathway was done by addition of MeBIO at 0.1 nM concentration. ARh antagonist compounds were then added to seeded cells in serial dilutions (8 dilutions, 1:[…] down to 5 nM) in duplicate wells. Renilla expression was not used as internal control. On each plate, Compound 1001 and SR1 were added as dose control (8 dilutions, 1:3, 5 mM down to 2.5 nM for SR1 and 2 mM down to 1 nM for compound 1001). Luminescence activity was evaluated after 24 hours culture using Lumi-384-CellTiterGlo-Corning protocol. Dose-response curves were generated using nonlinear regression in Excel.
Compound,EC1.5 [1],IC50 [2]
Nc1c(C(=O)Nc2ccccn2)sc2ncc(C(F)(F)F)cc12 [Compound 1022],100 to 1000 nM,< 50 nM
Nc1c(C(=O)Nc2ccc(OC(F)(F)F)cc2)sc2ncc(C(F)(F)F)cc12 [Compound 1084],<100 nM,< 50 nM
COc1ccc(NC(=O)c2sc3ccc(C(F)(F)F)cc3c2N)cc1Cl [Compound 1136],>5000 nM,< 50 nM
Cc1ccc(NC(=O)c2sc3ncc(C)cc3c2N)cc1 [Compound 1069],100 to 1000 nM,< 50 nM
Nc1c(C(=O)Nc2ccncc2)sc2cnc(C(F)(F)F)cc12 [Compound 1026],1000 to 5000 nM,50 to 500 nM
CNC(=O)c1ccc(NC(=O)c2sc3ncc(C(F)(F)F)cc3c2N)cc1 [Compound 1124],100 to 1000 nM,50 to 500 nM
Cc1cnc2sc(C(=O)Nc3ccc(Cl)cc3)c(N)c2c1 [Compound 1068],<100 nM,< 50 nM
Nc1c(C(=O)Nc2ccc(Cl)c(O)c2)sc2ncc(C(F)(F)F)cc12 [Compound 1097],1000 to 5000 nM,> 500 nM
Cc1ccc2sc(C(=O)Nc3ccc(Cl)cc3)c(N)c2n1 [Compound 1073],>5000 nM,50 to 500 nM
Nc1c(C(=O)Nc2ccc(C(F)(F)F)cc2)sc2ccc(C(F)(F)F)cc12 [Compound 1138],>5000 nM,50 to 500 nM
Nc1c(C(=O)Nc2ccc3c(c2)OCCO3)sc2ncc(C(F)(F)F)cc12 [Compound 1099],<100 nM,50 to 500 nM
Nc1c(C(=O)Nc2ccc3ncsc3c2)sc2ncc(C(F)(F)F)cc12 [Compound 1029],100 to 1000 nM,50 to 500 nM
Nc1c(C(=O)Nc2ccncc2)sc2ncc(Cl)cc12 [Compound 1011],1000 to 5000 nM,< 50 nM
Cc1cc(NC(=O)c2sc3ncc(C(F)(F)F)cc3c2N)ccc1Cl [Compound 1096],1000 to 5000 nM,50 to 500 nM
Nc1c(C(=O)Nc2ccccc2)sc2ncc(F)cc12 [Compound 1010],>5000 nM,50 to 500 nM
Nc1c(C(=O)Nc2ccncn2)sc2ncc(C(F)(F)F)cc12 [Compound 1102],>5000 nM,50 to 500 nM
Nc1c(C(=O)Nc2cccc(Cl)c2)sc2ccc(C(F)(F)F)cc12 [Compound 1144],>5000 nM,< 50 nM
Cc1cc2c(N)c(C(=O)Nc3ccccc3)sc2nc1C [Compound 1005],100 to 1000 nM,50 to 500 nM
Cc1cnc2sc(C(=O)Nc3ccc(Br)cc3)c(N)c2c1 [Compound 1062],<100 nM,< 50 nM
Nc1c(C(=O)Nc2ccc3c(c2)OCCO3)sc2ccc(C(F)(F)F)cc12 [Compound 1146],>5000 nM,50 to 500 nM
COc1cccc(NC(=O)c2sc3cnc(C(F)(F)F)cc3c2N)c1 [Compound 1080],100 to 1000 nM,< 50 nM
Nc1c(C(=O)Nc2ccccc2)sc2ncc(C3CC3)cc12 [Compound 1091],100 to 1000 nM,50 to 500 nM

Compound,EC1.5 [1],IC50 [2]
Nc1c(C(=O)Nc2cncnc2)sc2ncc(C(F)(F)F)cc12 [Compound 1109],>5000 nM,> 500 nM
Cc1cccc(NC(=O)c2sc3ncc(C)cc3c2N)c1 [Compound 1140],100 to 1000 nM,50 to 500 nM
COc1ccc(NC(=O)c2sc3nc4c(cc3c2N)CCCC4)cc1 [Compound 1105],>5000 nM,50 to 500 nM
Cc1cnc2sc(C(=O)Nc3ccc4c(c3)OCCO4)c(N)c2c1 [Compound 1141],100 to 1000 nM,50 to 500 nM
COc1cccc(NC(=O)c2sc3nc4c(cc3c2N)CCC4)c1 [Compound 1081],<100 nM,< 50 nM
Nc1c(C(=O)Nc2ccc(F)c(F)c2)sc2ncc(C(F)(F)F)cc12 [Compound 1075],100 to 1000 nM,< 50 nM
Nc1c(C(=O)Nc2ccnc3ccccc23)sc2ncc(C(F)(F)F)cc12 [Compound 1043],>5000 nM,> 500 nM
COc1ccc(NC(=O)c2sc3ncc(C(F)(F)F)cc3c2N)cn1 [Compound 1071],100 to 1000 nM,< 50 nM
Nc1c(C(=O)Nc2cccnc2)sc2ccc(C(F)(F)F)cc12 [Compound 1067],1000 to 5000 nM,< 50 nM
Cc1cnc(NC(=O)c2sc3ncc(C(F)(F)F)cc3c2N)s1 [Compound 1023],>5000 nM,50 to 500 nM
Nc1c(C(=O)Nc2ccc(OC(F)F)cc2)sc2ncc(C(F)(F)F)cc12 [Compound 1086],100 to 1000 nM,< 50 nM
Nc1c(C(=O)Nc2ccc(-c3ccccc3)cc2)sc2ncc(C(F)(F)F)cc12 [Compound 1030],>5000 nM,50 to 500 nM
COc1ccc(NC(=O)c2sc3ccc(C(F)(F)F)nc3c2N)cc1 [Compound 1116],100 to 1000 nM,50 to 500 nM
Cc1ccc2sc(C(=O)Nc3ccc(Cl)cc3)c(N)c2c1 [Compound 1130],>5000 nM,50 to 500 nM
COCc1ccc(NC(=O)c2sc3ncc(C(F)(F)F)cc3c2N)cc1 [Compound 1018],1000 to 5000 nM,< 50 nM
Nc1c(C(=O)Nc2ccsc2)sc2ccc(C(F)(F)F)cc12 [Compound 1152],>5000 nM,< 50 nM
Nc1c(C(=O)Nc2cccc(-c3ccncc3)c2)sc2ncc(C(F)(F)F)cc12 [Compound 1058],100 to 1000 nM,< 50 nM
Nc1c(C(=O)Nc2ccc3ncccc3c2)sc2ncc(C(F)(F)F)cc12 [Compound 1041],1000 to 5000 nM,50 to 500 nM
CCOc1ccc(NC(=O)c2sc3ccc(C(F)(F)F)cc3c2N)cc1 [Compound 1147],>5000 nM,50 to 500 nM
NC(=O)c1ccc(NC(=O)c2sc3ncc(C(F)(F)F)cc3c2N)cc1 [Compound 1123],>5000 nM,50 to 500 nM
CSc1ccc(NC(=O)c2sc3ncc(C)cc3c2N)cc1 [Compound 1143],<100 nM,< 50 nM
COC(=O)c1ccc(NC(=O)c2sc3ncc(C(F)(F)F)cc3c2N)cc1 [Compound 1125],100 to 1000 nM,50 to 500 nM
